In assay [1] the test system is FOXM1^A2 mRNA and FOXM1^BC mRNA. Description: Splicing assay (FOXM1), qPCR of isoform mRNAs. The format is cell-based. The note with it: for EC50: read-out: Splice EC50 (nM) FoxM1 A mRNA increase (exon excluded). Put shortly: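 RT-qPCR read-out after 24 h compound exposure at 37° C., 0.2% DMSO, top dose 10 μM with 4-fold 8-point dilutions, 20,000 cells per well. Copy numbers from plasmid standard curves, PPIA-normalized, expressed as isoform ratio relative to DMSO.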
(In general: Real-time PCR tracks product formation cycle by cycle.)

The next assay relates to A375 xenografts. Nature of the assay: A375 xenograft tumor growth inhibition. The format is in vivo. The note with it: immunocompromised nude mice with pre-existing A375 xenografts. As for the experimental part: Studies were performed to assess the effects of in vivo SMSM treatment on glioblastoma, breast, pancreatic, prostate, melanoma, lymphoma and Ewing sarcoma tumors. Studies were also performed to assess the effects of in vivo SMSM treatment on mRNA levels. Immunocompromised nude mice with pre-existing glioblastoma, breast, pancreatic, prostate, melanoma, lymphoma and Ewing sarcoma xenografts were treated with vehicle or SMSMs. Tumor tissues from subcutaneous xenografts were broken into a powder using a BioPulverizer (Biospec Products, Inc.). After SMSM treatment, mRNA was isolated from the xenografts and was analyzed by qRT-PCR.
Tumor size was measured 2 times per week in two dimensions using a caliper. Studies were terminated when the tumor size in the vehicle treated group reached 2,000 mm^3. Each mouse was bled at 2 hrs after the last dose and at least 50 μl of plasma was collected from each mouse. All of the collected plasma samples and retainer dosing solutions for each dose level were used for bioanalytical measurements. All tumors were also collected and weighed. One necrosis-free tumor fragment of approximately 50 mg was taken from each tumor and flash-frozen for RNA isolation. […]
The effects of in vivo SMSM treatments on pre-existing subcutaneous glioblastoma, breast, pancreatic, prostate, melanoma, lymphoma and Ewing sarcoma xenografts were assessed. […]

Assay [2] in a line: Splicing (IC50), Example 22. The format is cell-based. The note with it: spliced gene and cells not stated. As for the experimental part:
A-673 cell viability […], splicing (IC50) and brain AUC/Plasma AUC of SMSMs were determined. As shown in the tables below SMSMs had high CNS exposure.

[3] abbreviates: 24 h, MDA-MB-231-luc cells, 24 hours, table does not say EC50 or IC50, read-out: FOXM1.
Where [4] appears, read: 24 h, U-118 cells, 24 hours, table does not say EC50 or IC50, read-out: FOXM1.
Where [5] appears, read: FoxM1 BC mRNA decrease (exon included), read-out: Splice IC50 (nM) FoxM1 BC mRNA decrease (exon included).
Where [6] appears, read: Homo sapiens, A673, 24 h, A-673 cells, 24 hours, table does not say EC50 or IC50, read-out: FOXM1.
Setting [7] is: Homo sapiens, A-375, 24 h, A-375 cells, 24 hours, table does not say EC50 or IC50, read-out: FOXM1.
The mark [8] stands for this setting: Homo sapiens, BXPC-3, 24 h, BxPC-3 cells, 24 hours, table does not say EC50 or IC50, read-out: FOXM1.
Where [9] appears, read: Homo sapiens, Z-138, 24 h, Z-138 cells, 24 hours, table does not say EC50 or IC50, read-out: FOXM1.

Like-named read-outs stand apart in the source and are kept apart here.

The results in this text go back to patent US11008572B2, “Methods and compositions for modulating splicing” (SKYHAWK THERAPEUTICS, INC., priority 2017, dated 2021).

As for `CN(c1ccc(-c2ccc(-c3cn[nH]c3)cc2O)nn1)[C@@H]1C[C@H]2CC[C@@H](C1)N2` [compound 138, 2-(6-(((1R,3s,5S)-8-azabicyclo[3.2.1]octan-3-yl)(methyl)amino)pyridazin-3-yl)-5-(1H-pyrazol-4-yl)phenol], the IC50 in assay [1] (setting [3]) was in the range of 11 to 100 nM; in assay [1] (setting [4]), 11 to 100 nM; in assay [1] (setting [5]) it was 10 to 100 nM; in assay [1] (setting [6]) it was 11 to 100 nM; in assay [1] (setting [7]) it was 1 to 10 nM; in assay [1] (setting [8]) it was 101 to 200 nM. Also, the IC50 lay in the range of 11 to 100 nM in assay [1] (Homo sapiens, DU-145, 24 h, DU-145 cells, 24 hours, table does not say EC50 or IC50, read-out: FOXM1); 11 to 100 nM in assay [1] (Homo sapiens, Daoy, 24 h, Daoy cells, 24 hours, table does not say EC50 or IC50, read-out: FOXM1); 101 to 200 nM in assay [1] (Homo sapiens, G-401, 24 h, G-401 cells, 24 hours, table does not say EC50 or IC50, read-out: FOXM1); 11 to 100 nM in assay [1] (Homo sapiens, SH-SY5Y, 24 h, SH-SY5Y cells, 24 hours, table does not say EC50 or IC50, read-out: FOXM1); 11 to 100 nM in assay [1] (Homo sapiens, TT, 24 h, T.T cells, 24 hours, table does not say EC50 or IC50, read-out: FOXM1); 11 to 100 nM in assay [1] (setting [9]). Besides, in assay [1], the EC50 lay in the range of 10 to 100 nM.

As for `CN(c1ccc(-c2ccc(-c3cn[nH]c3)cc2O)nn1)[C@H]1C[C@]2(C)CC[C@](C)(C1)N2` [compound 151, 2-(6-(((1R,3s,5S)-1,5-dimethyl-8-azabicyclo[3.2.1]octan-3-yl)(methyl)amino)pyridazin-3-yl)-5-(1H-pyrazol-4-yl)phenol], the IC50 in assay [1] (setting [5]) is below 10 nM; in assay [1] (setting [6]) it was 1 to 10 nM; in assay [1] (setting [7]), 1 to 10 nM; in assay [1] (Homo sapiens, Hep3B, 24 h, Hep-3B cells, 24 hours, table does not say EC50 or IC50, read-out: FOXM1) it was 101 to 200 nM; in assay [1] (Homo sapiens, K562, 24 h, K-562 cells, 24 hours, table does not say EC50 or IC50, read-out: FOXM1), 11 to 100 nM; in assay [1] (Homo sapiens, MDA-MB-468, 24 h, MDA-MB-468 cells, 24 hours, table does not say EC50 or IC50, read-out: FOXM1) it was 11 to 100 nM. Moreover, the IC50 in assay [1] (Homo sapiens, NCI-H358, 24 h, NCI-H358 cells, 24 hours, table does not say EC50 or IC50, read-out: FOXM1) was 1 to 10 nM; in assay [1] (Homo sapiens, PANC-1, 24 h, PANC-1 cells, 24 hours, table does not say EC50 or IC50, read-out: FOXM1), 101 to 200 nM; in assay [1] (Homo sapiens, PC-3, 24 h, PC-3 cells, 24 hours, table does not say EC50 or IC50, read-out: FOXM1) it was 11 to 100 nM; in assay [1] (Homo sapiens, U-87 MG, 24 h, U-87MG cells, 24 hours, table does not say EC50 or IC50, read-out: FOXM1), 11 to 100 nM; in assay [2], below 0.001 µM. In addition, in assay [1], the EC50 is below 10 nM. Also, the “tumor growth inhibition (TGI), in words” value in the assay on A375 xenografts is on record as “led to tumor growth inhibition”.

With `CN(c1ccc(-c2ccc(-c3cn[nH]c3)cc2O)nn1)[C@@H]1C[C@H]2CCC[C@@H](C1)N2` [compound 160, 2-(6-(((1R,3s,5S)-9-azabicyclo[3.3.1]nonan-3-yl)(methyl)amino)pyridazin-3-yl)-5-(1H-pyrazol-4-yl)phenol], the IC50 in assay [1] (setting [3]) was 11 to 100 nM; in assay [1] (setting [4]), 1 to 10 nM; in assay [1] (setting [5]), below 10 nM; in assay [1] (setting [6]), 1 to 10 nM; in assay [1] (setting [7]), below 1 nM; in assay [1] (setting [8]), 11 to 100 nM. Also, the IC50 is 1 to 10 nM in assay [1] (setting [9]) and below 0.001 µM in assay [2]. For the same molecule, the EC50 in assay [1] is below 10 nM. For the same molecule, the “tumor growth inhibition (TGI), in words” value in the assay with A375 xenografts is “led to tumor growth inhibition”.

Usually EC50 stands for the midpoint of the concentration-response curve.
